pEC50: −log10 of the molar value. Where two headings read alike, the source gives them in different places. One block for each compound: values may come before it.
Assays:
aromatase = biological target: T1, aromatase (Rattus norvegicus, UniProt P22443); experiment: Aromatase inhibition in the rat ovarian microsome assay; type: biochemical; conditions: substrate (androstenedione) concentration 0.1 μM; rat ovarian microsomes; read-out: EC50 (concentration of compound required to achieve 50% inhibition of aromatase activity)
T1 construct: ovarian microsomes are obtained from rats treated with pregnant mares serum gonadotropin; from tissue; host or cells: rat ovary microsomes (rats treated with pregnant mares serum gonadotropin)
T1 sequence (P22443 1-508): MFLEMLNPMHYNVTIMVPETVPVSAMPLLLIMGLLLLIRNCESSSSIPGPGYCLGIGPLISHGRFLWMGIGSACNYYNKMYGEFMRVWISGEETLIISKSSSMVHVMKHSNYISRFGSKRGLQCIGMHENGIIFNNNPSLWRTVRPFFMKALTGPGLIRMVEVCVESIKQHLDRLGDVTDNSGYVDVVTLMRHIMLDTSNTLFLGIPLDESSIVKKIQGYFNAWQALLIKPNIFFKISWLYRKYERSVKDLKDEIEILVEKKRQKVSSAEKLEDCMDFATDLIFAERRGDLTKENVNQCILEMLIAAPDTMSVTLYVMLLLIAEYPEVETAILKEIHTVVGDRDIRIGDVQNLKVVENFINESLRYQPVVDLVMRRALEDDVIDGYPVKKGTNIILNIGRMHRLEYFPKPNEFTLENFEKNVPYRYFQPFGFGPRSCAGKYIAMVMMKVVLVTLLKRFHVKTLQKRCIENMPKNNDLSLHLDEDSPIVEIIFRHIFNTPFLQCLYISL
Protocol: In this test system, ovarian microsomes are obtained from rats treated with pregnant mares serum gonadotropin. Test compounds are added to reaction vials containing 0.1 μM 4-androstene-3,17-dione, 100,000 dpm 1,2[^3 H]-androstenedione, the microsomes and a NADPH generating system. The concentrations of the inhibitors tested ranged between 5 and 10000 nM. […] Potency is determined based on the concentration of inhibitor in nM required to produce a 50% inhibition of enzyme activity (EC50) when the concentration of substrate (androstenedione) is 0.1 μM.

[1] = test system: Estrogen synthesis (aromatization); experiment: Estrogen Synthesis Inhibition in Rats; type: in vivo, immature female Wistar rats; conditions: Rattus norvegicus, po, 168 h, gavage; for response vs control in vivo at 3 mg/kg: 3 mg/kg × 7 days; for response vs control in vivo at 30 mg/kg: 30 mg/kg × 7 days;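 on Uterine Wt. %: 100% equals the stimulated control's weight gain over the unstimulated control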
Protocol: By virtue of their ability to inhibit the enzyme aromatase, the compounds of this invention are able to inhibit the synthesis of estrogens in mammals, thereby making the compounds useful in the treatment of estrogen-dependent diseases, such as breast cancer.
Immature female Wistar rats (45-55 grams) were divided into control and test groups of 2-8 animals each. Test compounds were administered for seven days daily by gavage in corn oil. Control animals received corn oil without the test compound. Beginning on the fourth day of the test, all animals treated with the test compound and one half of the control animals were given a subcutaneous injection of 1.0 mg of testosterone propionate in corn oil. The remaining control animals received only an equivalent volume of corn oil. On the seventh day of the test, rats treated with testosterone propionate were injected subcutaneously with 100 μCi of [^3 H]-testosterone in 50 μl of saline-ethanol (3:1).
After two hours, the animals were killed by decapitation. Uteri were isolated, trimmed of extraneous connective tissue, and weighed. […] In the control animals treated with testosterone propionate, estrogens produced by aromatization stimulated the uterus resulting in an increase in weight.
Ovaries from rats treated with [^3 H]-testosterone were excised, cleaned of extraneous tissue, and homogenized in 2.5 ml of a 1.0 mM potassium phosphate buffer containing 3.0 mM MgCl2.6H2 O, 320 mM sucrose, and 0.25% Triton X-100 (polyethylene glycol p-isooctyl phenyl ether, Rohm and Haas) at pH 6.5. The ovarian steroids were extracted with 1.5 ml of 9:1 toluene/ethanol to which had been added 25 to 100 mcg each of unlabelled estradiol, estriol, and estrone, and approximately 1000 dpm of [^14 C]-estradiol. The samples were vortexed, centrifuged at 500×g for 10 minutes, and the organic phase was transferred to a conical vial. Two additional extractions were performed on the residue in the same way. The pooled organic extracts were evaporated for subsequent thin-layer chromatography.
Ovarian proteins were precipitated by the addition of 5.0 ml of ethanol to the remaining aqueous phase. After an overnight incubation at 4° C., the samples were centrifuged at 1500×g for 10 minutes. The supernatant was discarded and the pellet was dissolved in 0.3 N potassium hydroxide. Protein was determined according to the method of Bradford, Analytical Biochemistry, 72, 248 (1976).
The organic residue from each above extraction was redissolved in 9:1 dichloromethane/methanol. The solution of each sample was applied to separate silica gel thin layer chromatography plates which contained a fluorescent indicator. The plates were developed the first dimension with 160:38:1.5:0.5 dichloromethane/ethyl acetate/methanol/acetic acid to within 3 cm of the top of the plate. After air-drying, the plate was developed in the second dimension with 180:19:1 dichloromethane/methanol/ammonium hydroxide. The plate was air-dried and viewed under 254 nm UV light.
The visible spots were marked and the plates were sprayed with primulin (0.001% in 4:1 acetone/water) according to the method of Wright, J. Chromatography, 59, 220 (1971) which allowed for the identification of additional steroids under 365 nm UV light. The spots were scraped from the plate using a glass wool plugged Pasteur pipet attached to a vacuum line. The steroids were eluted directly into scintillation vials by the addition of 0.2 ml of dichloromethane followed by two washes each of 2.0 ml of methanol. The organic solvent was evaporated and 10.0 ml of scintillation fluid (Beckman Ready Solv-NA) was added to the vials. Samples were analyzed by liquid scintillation spectrometry and the corrections were made based on the recoveries of the [^14 C]-steroid.
In Table 2, values for uterine weight are expressed as the respective weights of drug treated (DT), unstimulated corn oil control (UC), and stimulated corn oil control (SC) according to the calculation %=100 (DT-UC)/(SC-UC). […]

[2] = 100 (DT-UC)/(SC-UC), read-out: Uterine Wt. %
[3] = ovaries, percent of testosterone-treated controls, read-out: % steroid concentration, estradiol
[4] = ovaries, percent of testosterone-treated controls, read-out: % steroid concentration, estrone

- pEC50 (aromatase): 7.68
SMILES: Clc1ccc2c(c1)-c1ncncc1C2c1ccccc1 (centres unmarked) [Example 3, 8-chloro-5-phenyl-5H-indeno[1,2-d]pyrimidine]

- pEC50 (aromatase): 7.59
SMILES: OC1(c2ccc(Cl)cc2)c2ccc(Cl)cc2-c2ncncc21 (centres unmarked) [Example 18, 8-chloro-5-(4-chlorophenyl)-5H-indeno[1,2-d]pyrimidin-5-ol]
- response vs control in vivo at 3 mg/kg [1, 2]: 30.4%
- response vs control in vivo at 3 mg/kg [1, 3]: 16.8%
- response vs control in vivo at 3 mg/kg [1, 4]: 89%
- response vs control in vivo at 30 mg/kg [1, 2]: -7.7%
- response vs control in vivo at 30 mg/kg [1, 3]: 7.5%
- response vs control in vivo at 30 mg/kg [1, 4]: 77%

- pEC50 (aromatase): > 7.30
SMILES: Clc1ccc(C2c3ccccc3-c3ncncc32)cc1Cl (centres unmarked) [Example 11, 5-(3,4-dichlorophenyl)-5H-indeno[1,2-d]pyrimidine]

- pEC50 (aromatase): 7.08
SMILES: Clc1ccc(Cl)c(C2c3ccccc3-c3ncncc32)c1 (centres unmarked) [Example 10, 5-(2,5-dichlorophenyl)-5H-indeno[1,2-d]pyrimidine]

- pEC50 (aromatase): 6.93
SMILES: ClC1(c2ccccc2)c2ccccc2-c2ncncc21 (centres unmarked) [Example 26, 5-chloro-5-phenyl-5H-indeno[1,2-d]pyrimidine]

- pEC50 (aromatase): 7.46
SMILES: FC1(c2ccc(Cl)cc2)c2ccc(Cl)cc2-c2ncncc21 (centres unmarked) [Example 28, 8-chloro-5-(4-chlorophenyl)-5-fluoro-5H-indeno[1,2-d]pyrimidine]

- pEC50 (aromatase): > 7.30
SMILES: Fc1cccc(C2c3ccccc3-c3ncncc32)c1 (centres unmarked) [Example 9, 5-(3-fluorophenyl)-5H-indeno[1,2-d]pyrimidine]

- pEC50 (aromatase): > 7.30
SMILES: COc1ccc2c(c1)-c1ncncc1C2c1cccc(Cl)c1 (centres unmarked) [Example 16, 5-(3-chlorophenyl)-8-methoxy-5H-indeno[1,2-d]pyrimidine]

- pEC50 (aromatase): 7.07
SMILES: Fc1ccccc1C1c2ccccc2-c2ncncc21 (centres unmarked) [Example 14, 5-(2-fluorophenyl)-5H-indeno[1,2-d]pyrimidine]

- pEC50 (aromatase): 6.38
SMILES: COc1ccc2c(c1)C(O)(c1ccc(Cl)cc1)c1cncnc1-2 (centres unmarked) [Example 20, 5-(4-chlorophenyl)-7-methoxy-5H-indeno[1,2-d]pyrimidin-5-ol]

- pEC50 (aromatase): 7.16
SMILES: CC(=O)NC1(c2ccc(F)cc2)c2ccccc2-c2ncncc21 (centres unmarked) [Example 24, N-[5-(4-fluorophenyl)-5H-indeno[1,2-d]pyrimidin-5-yl]acetamide]
- response vs control in vivo at 3 mg/kg [1, 2]: 32.3%
- response vs control in vivo at 3 mg/kg [1, 3]: 43.2%
- response vs control in vivo at 3 mg/kg [1, 4]: 71.9%
- response vs control in vivo at 30 mg/kg [1, 2]: 23.2%
- response vs control in vivo at 30 mg/kg [1, 3]: 19.2%
- response vs control in vivo at 30 mg/kg [1, 4]: 59.9%

- pEC50 (aromatase): 6.12
SMILES: Fc1ccc2c(c1)C(c1ccccc1F)c1cncnc1-2 (centres unmarked) [Example 17, 7-fluoro-5-(2-fluorophenyl)-5H-indeno[1,2-d]pyrimidine]

- pEC50 (aromatase): 7.57
SMILES: Fc1ccc(C2c3ccc(C(F)(F)F)cc3-c3ncncc32)cc1 (centres unmarked) [Example 4, 5-(4-fluorophenyl)-8-(trifluoromethyl)-5H-indeno[1,2-d]pyrimidine]
- response vs control in vivo at 3 mg/kg [1, 2]: -14.3%
- response vs control in vivo at 30 mg/kg [1, 2]: -35.5%

- pEC50 (aromatase): 7.14
SMILES: Clc1ccc(C2(Cl)c3ccc(Cl)cc3-c3ncncc32)cc1 (centres unmarked) [Example 27, 5,8-dichloro-5-(4-chlorophenyl)-5H-indeno[1,2-d]pyrimidine]

- pEC50 (aromatase): 6.59
SMILES: OC1(c2ccc(Cl)cc2Cl)c2ccccc2-c2ncncc21 (centres unmarked) [Example 19]
- response vs control in vivo at 3 mg/kg [1, 2]: 69.6%
- response vs control in vivo at 3 mg/kg [1, 3]: 78.3%
- response vs control in vivo at 3 mg/kg [1, 4]: 116%
- response vs control in vivo at 30 mg/kg [1, 2]: 42.8%
- response vs control in vivo at 30 mg/kg [1, 3]: 60%
- response vs control in vivo at 30 mg/kg [1, 4]: 75.4%

- pEC50 (aromatase): 7.21
SMILES: COc1ccc2c(c1)C(c1ccc(F)cc1)c1cncnc1-2 (centres unmarked) [Example 13, 5-(4-fluorophenyl)-7-methoxy-5H-indeno[1,2-d]pyrimidine]

- pEC50 (aromatase): 7.08
SMILES: c1ccc(C2c3ccccc3-c3ncncc32)cc1 (centres unmarked) [Example 7, 5-phenyl-5H-indeno[1,2-d]pyrimidine]

- pEC50 (aromatase): 7.30
SMILES: Fc1ccc2c(c1)-c1ncncc1C2c1ccc(C(F)(F)F)cc1 (centres unmarked) [Example 5, 8-fluoro-5-[4-(trifluoromethyl)phenyl]-5H-indeno[1,2-d]pyrimidine]
- response vs control in vivo at 3 mg/kg [1, 2]: 47.3%
- response vs control in vivo at 30 mg/kg [1, 2]: 22.8%

- pEC50 (aromatase): 6.58
SMILES: CC(=O)NC1(c2ccc(Cl)cc2)c2ccc(Cl)cc2-c2ncncc21 (centres unmarked) [Example 23, N-[8-chloro-5-(4-chlorophenyl)-5H-indeno[1,2-d]pyrimidin-5-yl]acetamide]

- pEC50 (aromatase): 7.20
SMILES: Clc1ccc(C2c3ccccc3-c3ncncc32)c(Cl)c1 (centres unmarked) [Example 8, 5-(2,4-dichlorophenyl)-5H-indeno[1,2-d]pyrimidine]

- pEC50 (aromatase): 6.30
SMILES: CC(=O)NC1(c2ccc(Cl)cc2Cl)c2ccccc2-c2ncncc21 (centres unmarked) [Example 25, N-[5-(2,4-dichlorophenyl)-5H-indeno[1,2-d]pyrimidin-5-yl]acetamide]

- pEC50 (aromatase): > 7.30
SMILES: Fc1ccc(C2c3ccccc3-c3ncncc32)cc1 (centres unmarked) [Example 15, 5-(4-fluorophenyl)-5H-indeno[1,2-d]pyrimidine]

- pEC50 (aromatase): 7.30
SMILES: OC1(c2ccccc2Cl)c2ccc(Cl)cc2-c2ncncc21 (centres unmarked) [Example 22, 8-chloro-5-(2-chlorophenyl)-5H-indeno[1,2-d]pyrimidin-5-ol]
- response vs control in vivo at 3 mg/kg [1, 2]: 70%
- response vs control in vivo at 3 mg/kg [1, 3]: 79.4%
- response vs control in vivo at 3 mg/kg [1, 4]: 73.4%
- response vs control in vivo at 30 mg/kg [1, 2]: 57.4%
- response vs control in vivo at 30 mg/kg [1, 3]: 40.8%
- response vs control in vivo at 30 mg/kg [1, 4]: 90.1%

- pEC50 (aromatase): > 7.30
SMILES: OC1(c2ccc(F)cc2)c2ccccc2-c2ncncc21 (centres unmarked) [Example 21, 5-(4-fluorophenyl)-5H-indeno[1,2-d]pyrimidin-5-ol]
- response vs control in vivo at 3 mg/kg [1, 2]: 46.4%
- response vs control in vivo at 3 mg/kg [1, 3]: 14.5%
- response vs control in vivo at 3 mg/kg [1, 4]: 83.8%
- response vs control in vivo at 30 mg/kg [1, 2]: 17.9%
- response vs control in vivo at 30 mg/kg [1, 3]: 8.8%
- response vs control in vivo at 30 mg/kg [1, 4]: 71.3%

- pEC50 (aromatase): 6.89
SMILES: COc1ccc2c(c1)C(c1ccc(Cl)cc1)c1cncnc1-2 (centres unmarked) [Example 12, 5-(4-chlorophenyl)-7-methoxy-5H-indeno[1,2-d]pyrimidine]
